In patent US12180202B1, “2-[(1,3-benzothiazol-2-yl)imino]-5,5-diphenylimidazolidin-4-one as an antimicrobial compound” (KING FAISAL UNIVERSITY, priority 2023, dated 2024) one finds inhibition zone and antimicrobial activities data, which are given here for two compounds.

Holding throughout (type): cell-based
The subject of assay [1] is Bacillus cereus. The experiment in a line: agar plate disc-diffusion, antibacterial activity. The conditions noted are these: nutrient agar, 37° C., 48 h. The method, then:
(§1) The agar plate disc-diffusion method was applied. […] The discs were then placed onto the surface of agar plates (nutrient agar for bacteria and Sabouraud's dextrose agar for fungi) seeded with the test organism. Each plate contained 15 mL of the agar medium, previously seeded with 0.2 mL of the broth culture of each organism pregrown for 18 hours. The plates were incubated at 37° C. for 48 h, and 72 h for fungi. The inhibition zones were measured in mm. Discs impregnated with DMSO were used as a control, and its inhibition zone was subtracted from the tested compound actual inhibition zone.

In assay [2] the test system is Staphylococcus aureus. The experiment in a line: agar plate disc-diffusion, antibacterial activity. The conditions noted are these: nutrient agar, 37° C., 48 h. The protocol: as §1
In assay [3] the test system is Escherichia coli. The assay is described as follows: agar plate disc-diffusion, antibacterial activity. To be noted: nutrient agar, 37° C., 48 h. The protocol:
as §1

The test system of assay [4] is Pseudomonas aeruginosa. The experiment in a line: agar plate disc-diffusion, antibacterial activity. To be noted: nutrient agar, 37° C., 48 h. The method, then:
as §1

Assay [5] has as its system Chrysosporium keratinophilum. The experiment in a line: agar plate disc-diffusion, antifungal activity. The conditions noted are these: Sabouraud's dextrose agar, 72 h. The protocol:
as §1

Assay [6] deals with Aspergillus flavus. The experiment in a line: agar plate disc-diffusion, antifungal activity. The conditions noted are these: Sabouraud's dextrose agar, 72 h. The protocol:
as §1

Assay [7] relates to different microbes. The assay is described as follows: antimicrobial activity screening, overall statement. To be noted: against different microbes (bacteria and fungi of Tables 1 and 2). The method, then: The agar plate disc-diffusion method was applied. Sterilized filter papers (6 mm in diameter) were wetted with 10 μL of a solution of 2-[(1,3-benzothiazol-2-yl)imino]-5,5-diphenylimidazolidin-4-one (3) to be tested, containing 10 mg/mL in DMSO, and the discs were allowed to air dry. The discs were then placed onto the surface of agar plates (nutrient agar for bacteria and Sabouraud's dextrose agar for fungi) seeded with the test organism. Each plate contained 15 mL of the agar medium, previously seeded with 0.2 mL of the broth culture of each organism pregrown for 18 hours. The plates were incubated at 37° C. for 48 h, and 72 h for fungi. The inhibition zones were measured in mm. Discs impregnated with DMSO were used as a control, and its inhibition zone was subtracted from the tested compound actual inhibition zone.

The mark [8] stands for this setting: A = concentration of comp. = 10,000 μL.
Where [9] appears, read: B = concentration of comp. = 30,000 μL.
Setting [10] is: C = concentration of comp. = 50,000 μL.
[11] abbreviates: A = concentration of comp. = 10 mg/mL.

As for `O=C(O)c1cn(C2CC2)c2cc(N3CCNCC3)c(F)cc2c1=O` [Cip., ciprofloxacin, reference compound], the inhibition zone in assay [1] (setting [8]) came out at 29 mm; in assay [1] (setting [9]), 30 mm; in assay [1] (setting [10]), 42 mm; in assay [2] (setting [8]), 43 mm; in assay [2] (setting [9]), 44 mm; in assay [2] (setting [10]), 53 mm. Moreover, the inhibition zone in assay [3] (A =) amounted to 30 mm; in assay [3] (setting [9]), 39 mm; in assay [3] (setting [10]), 60 mm; in assay [4] (setting [8]), 29 mm; in assay [4] (setting [9]) it was 30 mm; in assay [4] (setting [10]), 53 mm. Besides, the inhibition zone in assay [5] (setting [8]) is 29 mm; in assay [5] (setting [9]), 30 mm; in assay [5] (setting [10]) it was 53 mm; in assay [6] (setting [11]), 29 mm; in assay [6] (setting [9]), 30 mm; in assay [6] (setting [10]), 42 mm.
`O=C1N/C(=N/c2nc3ccccc3s2)NC1(c1ccccc1)c1ccccc1` [Compound 3, 2-[(1,3-benzothiazol-2-yl)imino]-5,5-diphenylimidazolidin-4-one]: the inhibition zone in assay [1] (setting [8]) is reported as 20 mm; in assay [1] (setting [9]), 23 mm; in assay [1] (setting [10]), 35 mm; in assay [2] (setting [8]), 19 mm; in assay [2] (setting [9]) it was 23 mm; in assay [2] (setting [10]), 35 mm. In addition, the inhibition zone in assay [3] (A =) is reported as 26 mm; in assay [3] (setting [9]) it was 34 mm; in assay [3] (setting [10]) it was 50 mm; in assay [4] (setting [8]), 24 mm; in assay [4] (setting [9]) it was 28 mm; in assay [4] (setting [10]), 45 mm. The inhibition zone is given as 26 mm in assay [5] (setting [8]); 29 mm in assay [5] (setting [9]); 45 mm in assay [5] (setting [10]); 21 mm in assay [6] (setting [11]); 25 mm in assay [6] (setting [9]); 31 mm in assay [6] (setting [10]). In assay [7], the antimicrobial activities entry is listed as “excellent antimicrobial activities”.
